Laboratory results: patent publication US20070048329A1, “Epstein barr virus peptide epitopes, polyepitopes and delivery system therefor” (priority 2002, published 2007)

Key:
Type in all cases: cell-based, human
[1] = test system: T cells in PBMC of EBV seropositive donors; test: IFN-γ ELISPOT assay, ex vivo stimulation of PBMC with LMP1 peptides
Procedure: The ELISPOT assay was used to assess whether stimulation of PBMC from a large panel of seropositive donors with LMP1 peptides could induce IFN-γ expression in T cells (Bharadwaj 2001). Briefly, ninety six-well mixed cellulose ester membrane plates (Millipore, Bedford, USA) were precoated with 100 μL/well of […] of anti-IFN-γ mAb, 1-D1K (Mabtech, Stockhohn, Sweden) overnight at 4° C. The plate was washed six times with phosphate-buffered saline (PBS), and unreactive sites blocked using 5% foetal bovine serum. PBMCs from healthy EBV carriers of known HLA types were separated from whole blood by Ficoll-Hypaque (Sigma) density gradient centrifugation. PBMCs were added in triplicate wells at 2.5×10^5 cells in a volume of 100 μL/well, and then peptides were added onto the PBMCs at a final 5 μg/mL concentration. PBMCs were also tested at different concentrations in triplicate wells at 2.5×10^5, 1.5×10^5 and 1×10^5 cells/well. PBMCs with various peptide concentrations, 10 μg/mL, 5 μg/mL and 1 μg/mL, were assayed. For negative controls, PBMCs were incubated in growth medium alone without adding peptides. The plate was incubated at 37° C. with 5% CO2 overnight (about 16-20 hr), then washed thrice with PBST (0.05% of Tween-20 in PBS) and three times with PBS before 100 μL/well of 1 μg/mL anti-IFN-γ mAb, 7-B6-1 (Mabtech, Stockholn, Sweden) was added and incubated at room temperature for 3-4 hr. After incubation, the plate was washed again thrice each with PBST and PBS, and 100 μL/well of 1 μg/mL streptavidin-alkaline phosphatase conjugate (Sigma) was added. The plate was incubated at room temperature for 2 hr. Wells were washed again three times each with PBST and PBS, and individual IFN-γ-producing cells were detected as dark spots after about 30-min to an hour-colour reaction with 5-bromo-4-chloro-3-indolylphosphate and nitroblue tetrazolium using an alkaline phosphatase-conjugated substrate (BCIP/NBT; Sigma). Spots were counted automatically using an image analysis software (ImagePro) (Bharadwaj 2001), and were expressed as spot-forming cells (SFC) per 10^6 PBMCs. The number of IFN-γ-secreting T cells was calculated by subtracting the negative control value from the SFC count.
To comprehensively profile the memory T cell responses against the LMP1 in seropositive virus carriers we used the ELISPOT assay, which allowed rapid ex vivo profiling of LMP1-specific immune response without prolonged in vitro culture. PBMC isolated from a panel of seropositive healthy virus carriers (Table 2) were stimulated with the complete set of overlapping LMP1 peptides and the cells that produced IFN-γ were detected. […] One of the interesting features of these responses was that the majority of the T cell reactivity was directed towards the epitopes within the transmembrane and CTAR1 domains of LMP1, while no reactivity was observed towards the CTAR2 and N-terminus (FIG. 1B). In particular, almost 80% of the CTAR1 domain was targeted for T cell recognition. To identify the T cell subsets responding to these peptides, PBMCs from the seven donors who recognized 17-mer peptides were fractionated into CD4-depleted and CD8-depleted populations and then tested again in ELISPOT assays. […] The CD4-dependent reactivity of the peptide […] was consistent with the previous observations by Leen and colleagues who mapped an HLA DQ2-restricted epitope within this sequence.
In order to determine the frequency of recognition of the HLA class I-restricted LMP1 CTL epitopes, PBMC from a panel of healthy virus carriers of diverse ethnic origin were screened by ELISPOT assays. Four different HLA class I-restricted and one HLA class II-restricted T cell epitopes were included in this analysis. Strong responses were observed against the HLA-A2-restricted […], […] and […] epitopes in 35-45% of the donors tested. […]

[2] = test system: peptide-sensitised PHA blasts and LCLs; test: 51Cr-release cytotoxicity assay with peptide-specific CTL lines and clones; details: for generation of CTL lines with minimised epitope: donors; for sensitizing autologous PHA blast to lysis by YLLEMLWRL-specific CTL clone: serial dilutions of peptide, compared with wild-type YLLEMLWRL, CTL clone SB7
Procedure: Polyclonal CTL lines and LMP1-specific CTL clones were established according to previously published methods (Moss 1988; Khanna 1998). Briefly, 2×10^6 PBMCs were stimulated with 1×10^6 autologous lymphocytes (responder to stimulator ratio of 2:1) pulsed with 10 μM peptide for 1 hr in 2 ml in a 24-well plate. After 3 days, culture medium with IL-2 (10 U/ml) was added and the cells were further expanded. These lymphocytes were restimulated on day 7 with γ-irradiated (8000 rad) autologous LCLs. After 10 days in culture medium, the cells were used as polyclonal effectors in a standard ^51Cr-release assay against peptide-sensitised autologous PHA blasts.
To generate peripheral blood CTL clones specific for the LMP1 derived peptides, PBMCs of healthy donors were reactivated (2×10^6) PBMCs with peptide-sensitised (10 ug of peptide/ml) autologous lymphocytes (1×10^6) in 2 ml wells of a 24-well plate in culture medium. After 3 days, the cells were seeded onto 0.35% agarose and maintained in T cell growth medium containing rIL2 (50 IU/ml). After another 3 days, growing clones were transferred to 96-well round-bottom tissue culture plates (Life Technologies) and cultured in T cell growth medium containing rIL2 (50-100 IU/ml).
Target cells were pre-sensitized with synthetic peptide epitopes and then incubated with ^51Cr for 90 min. Following incubation, these cells were washed in growth medium and used as targets in a standard 5 h ^51Cr-release assay (Moss, 1988)
To further characterize the minimal T cell epitopes defined by ELISPOT assays we generated polyclonal and clonal CTL lines specific for these epitopes. PBMCs from the healthy seropositive donors were stimulated with synthetic peptide epitopes and the CTL clones or polyclonal lines were established and tested in standard ^51Cr-release assays. The […] peptide-specific CTL clones were generated using initial stimulation with peptide-sensitized autologous PBMC followed by continuous restimulation with irradiated autologous LCL. These CTL clones were screened for […]-specific CTL activity by ^51Cr release assays against peptide-sensitised autologous and allogeneic PHA blast and LCLs. […] Titration of this minimal epitope on autologous PHA blasts further confirmed the fine specificity of this CTL clone (FIG. 5B).

[3] = test system: CD4+ and CD8+ T cell populations of PBMC; test: IFN-γ ELISPOT on CD4- or CD8-depleted PBMC; details: peptide 10 μg/ml
Procedure: FIG. 2: Ex vivo detection of IFN-γ secretion by CD4^+ and CD8^+ T cell populations following stimulation with LMP1 peptides. CD4^+ cells or CD8^+ cells were depleted from fresh PBMCs using anti-human CD4 or CD8 immunomagnetic beads as described in the Material and Methods section. These cells were resuspended in growth medium and stimulated with […] (SEQ ID NO: 36; panel A) and […] (SEQ ID NO: 39; panel B) peptides (10 μg/ml) and then tested for IFN-γ secretion using ELISPOT assays.
CD4^+ cells or CD8^+ cells were depleted from fresh PBMCs using anti-human CD4 or CD8 immunomagnetic beads (Dynabeads M450-CD4 and M450-CD8), respectively (Dynal, Oslo, Norway) according to the manufacturer's instructions. Efficient depletion was confirmed by staining the depleted PBMCs using dual staining with FITC-conjugated anti-CD8 and PE-conjugated anti-CD4 antibody and flow cytometry on a Coulter EPICS XL cytometer. […]
To comprehensively profile the memory T cell responses against the LMP1 in seropositive virus carriers we used the ELISPOT assay, which allowed rapid ex vivo profiling of LMP1-specific immune response without prolonged in vitro culture. PBMC isolated from a panel of seropositive healthy virus carriers (Table 2) were stimulated with the complete set of overlapping LMP1 peptides and the cells that produced IFN-γ were detected. […]

[4] = subject nineteen (NPC), donor theta

| Sequence | CTL response (SFC/10^6 PBMC) ([1]; subject beta) | CTL response (SFC/10^6 PBMC) ([1]; subject eleven) | CTL response (SFC/10^6 PBMC) ([1]; subject epsilon) | CTL response (SFC/10^6 PBMC) ([1]; subject fifteen) | CTL response (SFC/10^6 PBMC) ([1]; subject four) | CTL response (SFC/10^6 PBMC) ([1]; subject gamma) | CTL response (SFC/10^6 PBMC) [1, 4] | CTL response (SFC/10^6 PBMC) ([1]; subject thirteen) | CTL response (SFC/10^6 PBMC) ([1]; subject three) | CTL response (SFC/10^6 PBMC) ([1]; subject twenty) | CTL response (SFC/10^6 PBMC) ([1]; subject twenty-one) | CTL response (SFC/10^6 PBMC) ([1]; subject zeta) | also measured |
| --- | --- | --- | --- | --- | --- | --- | --- | --- | --- | --- | --- | --- | --- |
| ALLVLYSFA | 0 SFC/10^6 PBMC | 128 SFC/10^6 PBMC | 0 SFC/10^6 PBMC | 80 SFC/10^6 PBMC | 0 SFC/10^6 PBMC | 0 SFC/10^6 PBMC | 0 SFC/10^6 PBMC | 0 SFC/10^6 PBMC | 192 SFC/10^6 PBMC | 88 SFC/10^6 PBMC | 592 SFC/10^6 PBMC | 0 SFC/10^6 PBMC | CTL response (SFC/10^6 PBMC) ([1]; subject eighteen): 1184 SFC/10^6 PBMC; CTL response (SFC/10^6 PBMC) ([1]; subject one): 96 SFC/10^6 PBMC; CTL response (SFC/10^6 PBMC) ([1]; subject six): 480 SFC/10^6 PBMC; CTL response (SFC/10^6 PBMC) ([1]; subject twenty-two): 10 SFC/10^6 PBMC |
| DSNSNEGRH |  |  |  |  |  |  |  |  |  |  |  |  | generation of CTL lines with minimised epitope [2]: did not generate CTL lines |
| DWTGGALLVLYSFALML [LMP1 17-mer peptide] |  |  |  |  |  |  |  |  |  |  |  |  | T cell subset responding to the peptide [3]: only CD8^+ T-cell dependent reactivity |
| ESDSNSNEG [reference compound] |  |  |  |  |  |  |  |  |  |  |  |  | generation of CTL lines with minimised epitope [2]: did not generate CTL lines |
| IALYLQQNW |  | 504 SFC/10^6 PBMC |  |  |  | 0 SFC/10^6 PBMC | 0 SFC/10^6 PBMC |  |  |  |  |  | HLA B58-positive donors recognizing the epitope ([1]; responders/tested): 3/5; CTL response (SFC/10^6 PBMC) ([1]; subject delta): 0 SFC/10^6 PBMC; CTL response (SFC/10^6 PBMC) ([1]; subject eight): 1952 SFC/10^6 PBMC; CTL response (SFC/10^6 PBMC) ([1]; subject eta (NPC)): 0 SFC/10^6 PBMC; CTL response (SFC/10^6 PBMC) ([1]; subject five): 100 SFC/10^6 PBMC; CTL response (SFC/10^6 PBMC) ([1]; subject fourteen): 955 SFC/10^6 PBMC; CTL response (SFC/10^6 PBMC) ([1]; subject nine): 240 SFC/10^6 PBMC; CTL response (SFC/10^6 PBMC) ([1]; subject seventeen): 897 SFC/10^6 PBMC; CTL response (SFC/10^6 PBMC) ([1]; subject six): 455 SFC/10^6 PBMC; CTL response (SFC/10^6 PBMC) ([1]; subject ten): 80 SFC/10^6 PBMC; CTL response (SFC/10^6 PBMC) ([1]; subject two): 48 SFC/10^6 PBMC |
| TDDSGHESDSNSNEGRH |  |  |  |  |  |  |  |  |  | 141 SFC/10^6 PBMC |  |  | T cell subset responding to the peptide [3]: predominantly mediated by CD4+ cells; healthy virus carriers tested recognizing the epitope [1]: all three; healthy donors showing a CD8+ T-cell response in Elispot assays ([1]; responders/healthy donors assessed): 3/21; magnitude of responses ([1]; responding healthy donors): 131-190 SFC/10^6 PBMC; CTL response (SFC/10^6 PBMC) ([1]; subject seventeen): 190 SFC/10^6 PBMC; CTL response (SFC/10^6 PBMC) ([1]; subject ten): 131 SFC/10^6 PBMC; recognition of peptide coated autologous PHA blasts by polyclonal CTL lines ([2]; CTL lines from two donors, data not shown): recognition |
| YFLEILWGL |  |  |  |  |  |  |  |  |  |  |  |  | sensitizing autologous PHA blast to lysis by YLLEMLWRL-specific CTL clone [2]: poorly recognized |
| YLLEMLWRL [reference compound] | 0 SFC/10^6 PBMC | 136 SFC/10^6 PBMC | 0 SFC/10^6 PBMC | 300 SFC/10^6 PBMC | 0 SFC/10^6 PBMC | 0 SFC/10^6 PBMC | 0 SFC/10^6 PBMC | 0 SFC/10^6 PBMC | 42 SFC/10^6 PBMC | 160 SFC/10^6 PBMC | 66 SFC/10^6 PBMC | 0 SFC/10^6 PBMC | CTL response (SFC/10^6 PBMC) ([1]; subject seven): 100 SFC/10^6 PBMC; CTL response (SFC/10^6 PBMC) ([1]; subject sixteen): 20 SFC/10^6 PBMC; CTL response (SFC/10^6 PBMC) ([1]; subject twelve): 0 SFC/10^6 PBMC |
| YLMEILWRL |  |  |  |  |  |  |  |  |  |  |  |  | sensitizing autologous PHA blast to lysis by YLLEMLWRL-specific CTL clone [2]: poorly recognized |
| YLQQNWWTL [reference compound] | 0 SFC/10^6 PBMC | 196 SFC/10^6 PBMC | 0 SFC/10^6 PBMC | 100 SFC/10^6 PBMC | 0 SFC/10^6 PBMC | 0 SFC/10^6 PBMC | 0 SFC/10^6 PBMC | 0 SFC/10^6 PBMC | 28 SFC/10^6 PBMC | 244 SFC/10^6 PBMC | 38 SFC/10^6 PBMC | 0 SFC/10^6 PBMC | CTL response (SFC/10^6 PBMC) ([1]; subject seven): 110 SFC/10^6 PBMC; CTL response (SFC/10^6 PBMC) ([1]; subject sixteen): 26 SFC/10^6 PBMC; CTL response (SFC/10^6 PBMC) ([1]; subject twelve): 44 SFC/10^6 PBMC |
